This passage reports Kd and inhibition results from publication doi:10.1101/2020.09.01.277368v1, “Disulfiram inhibits M. tuberculosis growth by altering methionine pool, redox status and host-immune response” (biorxiv, 2020).

pKd: −log10 of the molar value.

Assay [1] deals with T1, MetA (HSAT, homoserine acetyl transferase, Rv3341) (Mycobacterium tuberculosis, UniProt P9WJY9).
T1 construct: gene metXA
The assay is described as follows: ThermoFluor, SYPRO Orange. Format: binding.

In assay [2] the target is T1, MetA (HSAT, homoserine acetyl transferase, Rv3341). Description: endpoint DTNB CoA release assay. Format: biochemical. The conditions noted are these: read-out: % inhibition at 100 μM.

T1 sequence (P9WJY9 whole entry, looked up): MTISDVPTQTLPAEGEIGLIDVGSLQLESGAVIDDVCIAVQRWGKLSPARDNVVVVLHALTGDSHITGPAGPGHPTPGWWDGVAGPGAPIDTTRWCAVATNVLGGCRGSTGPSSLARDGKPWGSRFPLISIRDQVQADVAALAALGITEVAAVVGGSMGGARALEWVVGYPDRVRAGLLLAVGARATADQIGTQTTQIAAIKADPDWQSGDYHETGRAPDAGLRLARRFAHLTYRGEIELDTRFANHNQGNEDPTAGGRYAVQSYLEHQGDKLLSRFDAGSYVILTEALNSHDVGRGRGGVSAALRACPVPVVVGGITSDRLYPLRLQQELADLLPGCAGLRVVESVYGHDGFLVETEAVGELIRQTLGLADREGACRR

For the molecule `CCN(CC)C(=S)SSC(=S)N(CC)CC` [DIS, disulfiram], in assay [1], the pKd is 4.28. Further, the inhibition at 100 µM in assay [2] is above 50%.

Turning to `CN(C)C(=S)SSC(=S)N(C)C` [NSC1771, thiram], in assay [2], the inhibition at 100 µM is above 50%.
